Experimental data from ChEMBL document CHEMBL1138724, “Synthesis and anticonvulsant activity of new 2-substituted-5- [2-(2-fluorophenoxy)phenyl]-1,3,4-oxadiazoles and 1,2,4-triazoles” (Bioorg Med Chem Lett, 2004).

Species: Mus musculus
Experiment: Effective dose required to protect mice against convulsion induced electroshock was determined by MES test
Assay type: functional
Conditions: not given

SMILES | ED50 [mg/kg]
Fc1ccccc1Oc1ccccc1-c1nnc(S)o1 | 43.1
Nc1nnc(-c2ccccc2Oc2ccccc2F)o1 | 9.57
Fc1ccccc1Oc1ccccc1-c1n[nH]c(S)n1 | 92
Oc1nnc(-c2ccccc2Oc2ccccc2F)o1 | > 100
CSc1nnc(-c2ccccc2Oc2ccccc2F)o1 | > 100

Tested on: not listed separately
Experiment: Lethal dose in mice
Assay type: toxicity
Conditions: mouse, in vivo

SMILES | LD50 [mg/kg]
CCOc1n[nH]c(-c2ccccc2Oc2ccccc2F)n1 | > 300
Fc1ccccc1Oc1ccccc1-c1nnc(S)o1 | > 300
Nc1nnc(-c2ccccc2Oc2ccccc2F)o1 | > 300
Fc1ccccc1Oc1ccccc1-c1n[nH]c(S)n1 | > 300
Oc1nnc(-c2ccccc2Oc2ccccc2F)o1 | > 300
CSc1nnc(-c2ccccc2Oc2ccccc2F)o1 | > 300

Tested on: Mus musculus
Experiment: Effective dose required to protect mice against convulsion induced by a lethal dose of PTZ (100 mg/kg) was determined in the presence of 10 mg/kg flumazenil
Assay type: functional
Conditions: not given

SMILES | ED50 [mg/kg]
Nc1nnc(-c2ccccc2Oc2ccccc2F)o1 | 39.2

Tested on: Mus musculus
Experiment: Effective dose required to protect mice against convulsion induced by a lethal dose of PTZ (100 mg/kg) was determined
Assay type: functional
Conditions: not given

SMILES | ED50 [mg/kg]
CCOc1n[nH]c(-c2ccccc2Oc2ccccc2F)n1 | 84.8
Fc1ccccc1Oc1ccccc1-c1nnc(S)o1 | > 100
Fc1ccccc1Oc1ccccc1-c1n[nH]c(S)n1 | > 100
CN1C(=O)CN=C(c2ccccc2)c2cc(Cl)ccc21 [DIAZEPAM] | 1.87

Tested on: Mus musculus
Experiment: Effective dose required to protect mice against convulsion induced electroshock was determined by MES test in the presence of 10 mg/kg flumazenil
Conditions: not given

SMILES | ED50 [mg/kg]
CN1C(=O)CN=C(c2ccccc2)c2cc(Cl)ccc21 [DIAZEPAM] | 1.57
